Experimental data: patent publication US20230381142A1, “ANTILEISHMANIAL COMPOUNDS, COMPOSITIONS AND USE THEREOF” (TRUSTEES OF BOSTON UNIVERSITY, priority 2022, published 2023)
Values after ≈ are worked out from the molar mass of the structure shown. Read-outs that look alike come from different tables or passages of the source.

Legend:
[1] = tested on: L. braziliensis (strain BA788) in J774 cells; assay: J774 luciferase infection assay (Assay Conditions E); assay type: cell-based, Leishmania braziliensis; settings: for L. braziliensis amastigotes EC75 (J774 cells): footnote e
Protocol: Assay Conditions E: J774 cells (ATCC J774A.1 were grown in DMEM supplemented with 10% Fetal Bovine Serum (FBS) and 1% Penicillin-Streptomycin at 37° C. in 5% CO2. Leishmania parasites expressing luciferase and GFP were grown as described in Front. Cell. Infect. Microbiol (2019) 9:237. J774 cells were seeded in microwell plates at 3×10^5 cells/mL density. Cells were washed with PBS and incubated with complete DMEM medium containing stationary phase Leishmania promastigotes (L. major: strain Friedlin; L. braziliensis, strain BA788) at a 1:10 parasite-cell ratio for 24 h. Cells were washed with PBS. Cells and compounds were incubated for 48 h at 37° C. and 5% C02. Compounds were tested in 8-point 2-fold serial dilution in 4 technical replicates, and 2 biological replicates. After 48 h, OneTiterGlo (Promega) (100 μl) was added to each well. Plates were incubated for 15 min and bioluminescence was measured using a plate reader (Molecular Devices). Effective concentration inducing 75% activity (EC75) was calculated using GraphPad Prism Software (version 9.0).

[2] = tested on: L. donovani intracellular amastigotes in B10R cells; assay: UCSD L. donovani infection assay (Assay Conditions D); assay type: cell-based; settings: for L. donovani amastigotes EC75 (B10R cells): footnote d; for EC50 / IC50: Leishmania donovani
Method in brief: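 B10R cells (300/well) infected with stationary-phase L. donovani WT promastigotes at 20 parasites/cell in DMEM high-glucose, 5% FBS, with compounds 72 h at 37° C., 5% CO2. Formaldehyde-fixed, DAPI-stained, imaged by high-content microscopy; 10-point 2-fold dilutions (screen at 10 μM) gave EC50 and host CC50.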

[3] = UCSD infection assay, host cell cytotoxicity (CC50); assay type: cell-based; settings: mouse, B10R host cells infected with L. donovani
Protocol: (§1) Assay Conditions D: B10R cells (CVCL_0155) were seeded at 300 cells/well, and L. donovani WT promastigotes in stationary phase (7th day after passage) were added at 6,000 parasites/well (ratio of 20 parasites/cell). Both cells and parasites were seeded in DMEM High-Glucose medium (Gibco, cat. no. 11995065) containing 5% Fetal Bovine Serum (Sigma-Aldrich, cat. no. F2442) and 1% Penicillin-Streptomycin (Gibco, cat. no. 15140122). Cells and parasites were incubated in the presence of the compounds for 72 h at 37° C. and 5% C02. Plates were then fixed with 4% formaldehyde solution for at least 1 h, then washed with 1×PBS and stained with 5 μg/mL DAPI. Plates were read using an ImageXpress microscope (Molecular Devices) and analyzed by MetaXpress software (Molecular Devices) using a custom module optimized for this assay. […] Compounds were tested in a 10-point 2-fold serial dilution in 3 technical replicates, and 2 biological replicates. After 72 h, plates were fixed and stained with DAPI as described above. Images were acquired on an ImageXpress microscope, and analyzed using the MetaXpress custom module.
as §1, with “Compounds were obtained as 0.2 μmoles of dried film for primary single point screening. Each compound was diluted in DMSO to 10 μM final testing concentration. These compounds were tested in 2 biological replicates. The compounds were pre-spotted onto 384-well assay plates in single concentration.” for “Assay Conditions D:”, “CO2.” for “C02.”, “module. The DRCs were plotted, half-effective concentration (EC50) and half-cytotoxic concentration (CC50) were calculated using GraphPad Prism Software, version 6.05 (GraphPad Software, San Diego, CA).” for “module.”

[4] = tested on: THP-1 cells; assay: Host THP-1 cell cytotoxicity in the CDIPD high content screen; assay type: cell-based, human; settings: Homo sapiens, THP-1; 10 μM; footnote b; read-out: THP-1 host cell % growth inhibition at 10 μM
Protocol: (§2) Assay Conditions B: THP-1 cells (human acute monocytic leukemia cell line—ATCC TIB202) were grown in RPMI supplemented with 10% Fetal Bovine Serum (FBS) and 50 μM 2-mercaptoethanol at 37° C. in 5% CO2. THP-1 were seeded in microwell plates at 5×10^5 cells/mL density and treated with 0.1 μM phorbol myristate acetate (PMA, Sigma) at 37° C. for 48 h for differentiation into adherent, non-dividing macrophages. After activation by PMA, cells were washed and incubated with complete RPMI medium containing stationary phase Leishmania promastigotes (L. major: strain LV39; L. donovani, strain 1S/Cl2D) at a 1:15 parasite-cell ratio. Compounds were added and incubated at 37° C. for 72 h. Cells were then washed with phosphate-buffered saline (PBS), fixed for 30 minutes with 4% formaldehyde, rinsed again with PBS, stained for 2 h with 4′,6′-diamidino-2-phenylindole (DAPI 300 nM) and finally washed with PBS. In a collaborative effort to identify new antileishmanial chemotypes with minimal host cell cytotoxicity, compounds from the Boston University Center for Molecular Discovery (BUCMD) screening collection were assessed in a phenotypic, high content primary screen at the University of California's Center for Discovery and Innovation in Parasitic Diseases (CDIPD) for the ability to inhibit growth of L. donovani intracellular amastigotes infecting THP-1 cells. […] Dose-response testing in L. donovani (both intracellular amastigotes and promastigotes) confirmed concentration-dependent growth inhibition of both morphologies of the parasite at low micromolar EC50 values for both compounds (Table 1).

[5] = tested on: L. donovani intracellular amastigotes infecting THP-1 cells; assay: High content intracellular amastigote assay in THP-1 cells (Assay Conditions B; CDIPD screen); assay type: cell-based, Leishmania donovani; settings: for L. donovani amastigotes % GI at 10 μM (THP-1 cells): footnote b
Protocol: as §2

[6] = GSK inMac assay, host cell toxicity readout (LD MAC); assay type: cell-based, human; settings: human; footnote c; read-out: THP-1 Host Cell CC50
Method in brief: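 Intramacrophage L. donovani assay in THP-1 macrophages; host toxicity taken from host cell number per well, giving MAC EC50. Run alongside amastigote-per-cell and infected-cell readouts in the same wells.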

[7] = UCSD infection assay, host cell cytotoxicity (CC50); assay type: cell-based; settings: host macrophages infected with L. donovani; cytotoxicity against host macrophages
[8] = target: human serum albumin (Homo sapiens, UniProt P02768); assay: Human serum albumin (HSA) binding, chromatographic; assay type: in vitro ADME
human serum albumin, sequence (P02768 25-609): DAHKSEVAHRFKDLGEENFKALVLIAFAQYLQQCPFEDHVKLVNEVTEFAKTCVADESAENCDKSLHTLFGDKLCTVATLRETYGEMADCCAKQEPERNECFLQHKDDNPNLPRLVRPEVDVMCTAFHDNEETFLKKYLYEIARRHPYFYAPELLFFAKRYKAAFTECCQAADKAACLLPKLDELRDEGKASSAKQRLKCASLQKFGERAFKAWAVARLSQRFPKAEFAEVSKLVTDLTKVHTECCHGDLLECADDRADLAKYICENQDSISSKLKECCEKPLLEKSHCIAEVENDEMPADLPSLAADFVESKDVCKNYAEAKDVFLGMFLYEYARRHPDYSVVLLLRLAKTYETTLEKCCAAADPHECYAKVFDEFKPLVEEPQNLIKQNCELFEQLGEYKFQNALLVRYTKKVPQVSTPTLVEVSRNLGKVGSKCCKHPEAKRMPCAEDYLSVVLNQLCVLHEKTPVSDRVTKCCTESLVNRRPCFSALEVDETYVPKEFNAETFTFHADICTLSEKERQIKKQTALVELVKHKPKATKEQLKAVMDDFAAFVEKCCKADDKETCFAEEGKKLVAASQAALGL
Protocol: The percentage of compound bound to human serum albumin was measured using a chromatographic method as described. Briefly, each compound was assayed on an immobilized HSA column and gradient retention times measured, with chromatographic peak detection by UV. Each retention time was then converted to a % HSA bound value using a calibration set of compounds with a known % HSA binding.

[9] = Kinetic aqueous solubility by CAD; assay type: physicochemical; settings: aqueous medium, kinetic from dmso stock, high-throughput CAD
Protocol: Solubility of compounds using ChemiLuminescent Nitrogen Detection (CLND) was measured as described. Solubility of compounds using Charged Aerosol Detection (CAD) was measured as described. Solubility of solid compounds in Fasted Simulated Intestinal Fluid (FaSSIF) was measured as described.

[10] = tested on: L. donovani intracellular amastigotes infecting THP-1 macrophages; assay: GSK intramacrophage L. donovani assay (LD AMMAC, inMac; Assay Conditions C); assay type: cell-based; settings: Leishmania donovani, THP-1
Method in brief: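 L. donovani amastigotes within THP-1 macrophages; EC50 based on average intracellular amastigotes per infected cell (AMMAC). Infected-cell percentage (INFCELL) and host-cell number (MAC) also read, the latter as toxicity output.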

[11] = Property forecast index (PFI = ChromLogD7.4 + aromatic rings); assay type: physicochemical
[12] = B10R cells, values marked d, read-out: L. donovani amastigotes EC50 (B10R cells)
[13] = average of two biological replicates, read-out: L. donovani EC50 (UCSD assay)

Compound: Cc1cc(N2C(=O)c3[nH]nc(CC(C)C)c3C2c2ccccc2Cl)ccn1 (stereo not drawn) [BUCMD00639]
- L. braziliensis amastigotes EC75 (J774 cells) [1]: >10 µM
- L. donovani amastigotes EC75 (B10R cells) ([2]; B10R cells): 0.4 µM
- CC50 at 72 h ([3]; footnote d): 20 µM

Compound: CC(C)Cc1n[nH]c2c1C(c1ccc(F)cc1Cl)N(c1cncc(F)c1)C2=O (stereo not drawn) [BUCMD00694]
- L. braziliensis amastigotes EC75 (J774 cells) [1]: >10 µM
- L. donovani amastigotes EC75 (B10R cells) ([2]; B10R cells): 0.4 µM
- CC50 at 72 h ([3]; footnote d): 10 µM

Compound: COc1ncc(N2C(=O)c3[nH]nc(CC(C)C)c3C2c2ccc(F)cc2C)cc1F (stereo not drawn) [BUCMD00729]
- L. braziliensis amastigotes EC75 (J774 cells) [1]: 2.0 µM
- L. donovani amastigotes EC75 (B10R cells) ([2]; B10R cells): 0.4 µM
- CC50 at 72 h ([3]; footnote d): 6.31 µM

Compound: C#CCCCCOc1ccc(C2c3c(CC(C)C)n[nH]c3C(=O)N2c2ccc(OC)nc2)c(Cl)c1 (stereo not drawn) [BUCMD00738]
- L. braziliensis amastigotes EC75 (μM, J774 cells) [1]: >10 µM
- L. donovani amastigotes EC75 (μM, B10R cells) ([2]; B10R cells): >10 µM
- CC50 at 72 h ([3]; host B10R cells): 7.94 µM

Compound: COc1ccc(N2C(=O)c3[nH]nc(C(C)C)c3C2c2ccc(C)cc2)cc1 (stereo not drawn) [CMLD007169]
- inhibition at 10 µM [4]: < 10%
- L. donovani amastigotes % GI at 10 μM (THP-1 cells) [5]: 0.0%

Compound: COc1ccc(N2C(=O)c3[nH]nc(C(C)C)c3C2c2ccc(F)cc2)cc1 (stereo not drawn) [CMLD007188]
- inhibition at 10 µM [4]: < 10%
- L. donovani amastigotes % GI at 10 μM (THP-1 cells) [5]: 0.0%

Compound: COc1ccc(N2C(=O)c3[nH]nc(-c4ccccc4)c3C2c2ccccc2)cc1 (stereo not drawn) [CMLD007203]
- inhibition at 10 µM [4]: < 10%
- L. donovani amastigotes % GI at 10 μM (THP-1 cells) [5]: 0.0%

Compound: COc1ccc(N2C(=O)c3[nH]nc(C)c3C2c2ccccc2)cc1 (stereo not drawn) [CMLD007219]
- inhibition at 10 µM [4]: < 10%
- L. donovani amastigotes % GI at 10 μM (THP-1 cells) [5]: 0.0%

Compound: COc1ccc(N2C(=O)c3[nH]nc(C)c3C2c2ccc(F)cc2)cc1 (stereo not drawn) [CMLD007221]
- inhibition at 10 µM [4]: < 10%
- L. donovani amastigotes % GI at 10 μM (THP-1 cells) [5]: 0.0%

Compound: COc1ccc(N2C(=O)c3[nH]nc(-c4ccccc4)c3C2c2ccc(F)cc2)cc1 (stereo not drawn) [CMLD007235]
- inhibition at 10 µM [4]: 30%
- L. donovani amastigotes % GI at 10 μM (THP-1 cells) [5]: 0.0%

Compound: COc1ccc(N2C(=O)c3[nH]nc(C)c3C2c2ccc(C)cc2)cc1 (stereo not drawn) [CMLD007247]
- inhibition at 10 µM [4]: < 10%
- L. donovani amastigotes % GI at 10 μM (THP-1 cells) [5]: 0.0%

Compound: COc1ccc(N2C(=O)c3[nH]nc(-c4ccccc4)c3C2c2ccc(C)cc2)cc1 (stereo not drawn) [CMLD007262]
- inhibition at 10 µM [4]: < 10%
- L. donovani amastigotes % GI at 10 μM (THP-1 cells) [5]: 0.0%

Compound: COc1ccc(N2C(=O)c3[nH]nc(C(C)C)c3C2c2ccccc2)cc1 (stereo not drawn) [CMLD007286]
- inhibition at 10 µM [4]: < 10%
- L. donovani amastigotes % GI at 10 μM (THP-1 cells) [5]: 0.0%

Compound: CC(C)Cc1n[nH]c2c1C(c1ccccc1)N(c1ccccc1)C2=O (stereo not drawn) [CMLD007421]
- inhibition at 10 µM [4]: < 10%
- L. donovani amastigotes % GI at 10 μM (THP-1 cells) [5]: 0.0%

Compound: Cc1ccc(C2c3c(CC(C)C)n[nH]c3C(=O)N2c2ccccc2)cc1 (stereo not drawn) [CMLD007424]
- inhibition at 10 µM [4]: 35%
- L. donovani amastigotes % GI at 10 μM (THP-1 cells) [5]: 81.0%

Compound: CC(C)Cc1n[nH]c2c1C(c1ccc(F)cc1)N(c1ccccc1)C2=O (stereo not drawn) [CMLD007425]
- inhibition at 10 µM [4]: 13%
- L. donovani amastigotes % GI at 10 μM (THP-1 cells) [5]: 15.0%

Compound: COc1ccc(N2C(=O)c3[nH]nc(CC(C)C)c3C2c2ccc(C)cc2)cc1 (stereo not drawn) [CMLD007430]
- inhibition at 10 µM [4]: < 10%
- L. donovani amastigotes % GI at 10 μM (THP-1 cells) [5]: 0.0%
- inhibition at 10 µM ([5]; Leishmania donovani, THP-1, read-out: inhibition at 10 μM (initial screening)): 0%

Compound: COc1ccccc1C1c2c(CC(C)C)n[nH]c2C(=O)N1c1ccc(N(C)C)cc1 (stereo not drawn) [CMLD011552]
- CC50 [6]: 3.5 µM
- L. braziliensis amastigotes EC75 (J774 cells) [1]: >10 µM
- L. donovani amastigotes EC75 (B10R cells) ([2]; B10R cells): 0.1 µM
- EC50 [2, 12]: 0.1 µM
- CC50 at 72 h ([3]; footnote d): 3.98 µM

Compound: Cc1cc(F)ccc1C1c2c(CC(C)C)n[nH]c2C(=O)N1c1ccc(Br)cc1 (stereo not drawn) [CMLD011565]
- CC50 [6]: 3 µM
- L. braziliensis amastigotes EC75 (J774 cells) [1]: 5.0 µM
- L. donovani amastigotes EC75 (B10R cells) ([2]; B10R cells): 0.1 µM
- EC50 [2, 12]: 0.1 µM
- CC50 at 72 h ([3]; footnote d): 3.98 µM

Compound: CC(C)Cc1n[nH]c2c1C(c1ccccc1Cl)N(c1ccc3c(c1)OCO3)C2=O (stereo not drawn) [Compound 67, 5-(benzo[d][1,3]dioxol-5-yl)-4-(2-chlorophenyl)-3-isobutyl-4,5-dihydropyrrolo[3,4-c]pyrazol-6(1H)-one]
- CC50 at 72 h [7]: 12.2 µM
- HSA Binding [8]: 98.0%
- solubility [9]: 35 µM (≈ 14.3 µg/mL)
- IC50 [10]: 0.5 µM
- PFI [11]: 8.7
- IC50 [2]: 0.2 µM
- EC50 [2, 13]: 0.16 µM

Compound: Cc1cc(F)ccc1C1c2c(CC(C)C)n[nH]c2C(=O)N1c1ccc2c(c1)OCO2 (stereo not drawn) [Compound 70, 5-(benzo[d][1,3]dioxol-5-yl)-4-(4-fluoro-2-methylphenyl)-3-isobutyl-4,5-dihydropyrrolo[3,4-c]pyrazol-6(1H)-one]
- CC50 at 72 h [7]: 12.1 µM
- HSA Binding [8]: 97.6%
- solubility [9]: 46 µM (≈ 18.7 µg/mL)
- IC50 [10]: > 100 µM
- PFI [11]: 8.6
- IC50 [2]: 0.1 µM
- EC50 [2, 13]: 0.1 µM
